Measured values: the supplement of paper PMC10307832

Tests used:
Experiment in all cases: relative viability (nuclei count vs DMSO), 5 days (fraction); higher = more cells survive
EMC-BAC-2 = tested on: EMC-BAC-2
Method in brief: (§1)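 For relative viability, nuclei counts in treated wells were divided by those in vehicle wells. Lung cancer cell lines had been pin-tool dosed in 1536-well plates the day after seeding and cultured for 5 days, then fixed and stained in one step (final 0.05% Triton X-100, 1% formaldehyde, 1 ug/ml Hoechst) and imaged at 4×. Doses were one drug alone or a fixed anchor-drug dose plus five library-drug doses (not always all listed) in √10 steps, and values are duplicate-plate medians.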

HCC-366 = tested on: HCC-366
Method in brief: as §1

HCC-78 = tested on: HCC-78
Method in brief: as §1

LCLC-97TM1 = tested on: LCLC-97TM1
Method in brief: as §1

NCI-H1395 = tested on: NCI-H1395
Method in brief: as §1

NCI-H1648 = tested on: NCI-H1648
Method in brief: as §1

Row | SMILES | relative viability (EMC-BAC-2; first compound 0.002 µM) | relative viability (EMC-BAC-2; first compound 0.02 µM) | relative viability (EMC-BAC-2; first compound 0.06325 µM) | relative viability (EMC-BAC-2; first compound 0.2 µM) | relative viability (HCC-366; first compound 0.002 µM) | relative viability (HCC-366; first compound 0.006325 µM) | relative viability (HCC-366; first compound 0.02 µM) | relative viability (HCC-366; first compound 0.06325 µM) | relative viability (HCC-366; first compound 0.2 µM) | relative viability (HCC-78; first compound 0.002 µM) | relative viability (HCC-78; first compound 0.006325 µM) | relative viability (HCC-78; first compound 0.02 µM) | relative viability (HCC-78; first compound 0.06325 µM) | relative viability (HCC-78; first compound 0.2 µM) | relative viability (LCLC-97TM1; first compound 0.002 µM) | relative viability (LCLC-97TM1; first compound 0.006325 µM) | relative viability (LCLC-97TM1; first compound 0.06325 µM) | relative viability (LCLC-97TM1; first compound 0.2 µM) | relative viability (NCI-H1395; first compound 0.002 µM) | relative viability (NCI-H1395; first compound 0.006325 µM) | relative viability (NCI-H1395; first compound 0.02 µM) | relative viability (NCI-H1395; first compound 0.06325 µM) | relative viability (NCI-H1395; first compound 0.2 µM) | relative viability (NCI-H1648; first compound 0.002 µM) | relative viability (NCI-H1648; first compound 0.006325 µM) | relative viability (NCI-H1648; first compound 0.02 µM) | relative viability (NCI-H1648; first compound 0.06325 µM) | relative viability (NCI-H1648; first compound 0.2 µM) | relative viability (EMC-BAC-2; first compound 0.006325 µM)
1 | CCNC(=O)c1noc(-c2cc(C(C)C)c(O)cc2O)c1-c1ccc(CN2CCOCC2)cc1 [Luminespib] + CC(=O)Nc1cccc(-n2c(=O)n(C3CC3)c(=O)c3c(Nc4ccc(I)cc4F)n(C)c(=O)c(C)c32)c1 [Trametinib] (partner 0.02 µM) | 0.857 | 0.643 | 0.619 | 0.247 | 0.354 | 0.363 | 0.349 | 0.026 | 0.0301 | 0.74 | 0.61 | 0.572 | 0.874 | 0.512 | 0.233 | 0.186 | 0.221 | 0.166 | 0.994 | 1.05 | 0.827 | 0.35 | 0.379 | 0.395 | 0.492 | 0.513 | 0.407 | 0.278 | –
2 | CCNC(=O)c1noc(-c2cc(C(C)C)c(O)cc2O)c1-c1ccc(CN2CCOCC2)cc1 [Luminespib] + CC(=O)c1c(C)c2cnc(Nc3ccc(N4CCNCC4)cn3)nc2n(C2CCCC2)c1=O [Palbociclib] (partner 0.5 µM) | 0.543 | 0.424 | 0.398 | 0.31 | 0.363 | 0.358 | 0.411 | 0.0279 | 0.0276 | 0.461 | – | 0.467 | 0.51 | 0.427 | 0.214 | 0.227 | 0.248 | 0.205 | 0.645 | 0.631 | 0.498 | 0.338 | 0.344 | 0.216 | 0.336 | 0.246 | 0.361 | 0.387 | 0.495
3 | CCNC(=O)c1noc(-c2cc(C(C)C)c(O)cc2O)c1-c1ccc(CN2CCOCC2)cc1 [Luminespib] + Nc1nc2[nH]cc(CCc3ccc(C(=O)N[C@@H](CCC(=O)O)C(=O)O)cc3)c2c(=O)[nH]1 [Pemetrexed] (partner 0.2 µM) | 0.467 | 0.573 | 0.383 | 0.444 | 0.169 | 0.156 | 0.366 | 0.0354 | 0.0333 | 0.885 | 0.864 | 0.97 | 0.87 | 0.858 | 0.189 | 0.164 | 0.0959 | 0.0922 | 0.875 | 0.812 | 0.699 | 0.299 | 0.353 | 0.753 | 0.683 | 0.899 | 0.749 | 0.267 | 0.287
